What was measured:
[1] = test system: blood pressure in the carotid artery; experiment: animal or person; settings: for ED20: Rattus norvegicus, iv, read-out: Blood pressure-lowering action ED 20%; for animals died: 10 mg/kg, rats
Method: 2. Blood pressure-lowering action on narcotized rats.
The blood pressure in the carotid artery is measured by means of a Statham transducer.
(2) Intravenous administration to rats under urethane narcosis. ED 20% =
dose, in mg/kg, which lowers the blood pressure by 20%.

in vivo = settings: for LD 50 / toxicity compared with propranolol (in words): i.p., mice
Excerpt: 4. Acute toxicity in mice
The period of observation is 1 week.
(4) Intraperitoneal administration to mice.

[2] = test system: isoproterenol-induced tachycardia; settings: for ED50: Felis catus, read-out: β-Sympatholytic action ED 50%; for ED50 / β-Sympatholytic action R.A. (relative activity): iv; for β-Sympatholytic action R.A. (relative activity) / β-sympatholytic activity (in words): in vivo
systolic blood pressure = experiment: Anti-hypertensive action on spontaneously hypertonic rats (oral); assay type: in vivo, male spontaneously hypertonic Okamoto rats
Method: 3. Anti-hypertensive action on spontaneously hypertonic rats.
The substances are administered orally to groups of 8 male spontaneously hypertonic Okamoto rats (weight 280-350 g). Before, and two hours after, the administration the systolic blood pressure is measured non-surgically on the rats' tails by means of piezoelectric crystal sensors.

[3] = test system: blood pressure in the carotid artery; settings: general statement, no test or species given; cited from earlier work
[4] = 0.001 mg/kg i.v., cats under hexobarbital narcosis, average

SMILES	ED20 [1]	LD 50 / toxicity compared with propranolol (in words) (in vivo)	ED50 [2]	β-Sympatholytic action R.A. (relative activity) [2]	further results
C#CC(C)(C)NCC(O)COc1ccccc1C=Cc1cc(C)no1 (stereo not drawn) [Example 13, 3-Methyl-5-[2-(2-hydroxy-3-(3-methyl-but-1-ynyl-3-amino)-propoxy)-styryl]-isoxazole]	1 mg/kg	more than twice as high as that of propranolol	0.017 mg/kg	6.5	–
CCc1cc(C=Cc2ccccc2OCC(O)CNC2CC2)on1 (stereo not drawn) [Example 5, 3-Ethyl-5-[2-(2-hydroxy-3-cyclopropylaminopropoxy)-styryl]-isoxazole]	0.83 mg/kg	of the same toxicity, or somewhat more toxic	0.12 mg/kg	0.9	LD50 at 168 h (in vivo; mouse, in vivo, ip): 95 mg/kg
CC(C)NCC(O)c1ccc(O)c(O)c1 (stereo not drawn) [isoproterenol, reference compound]	–	–	–	–	increase of pulse rate [2, 4]: 61 beats; increase of pulse rate, percent [2, 4]: 40%
CCc1cc(C=Cc2ccccc2OCC(O)CNC(C)(C)C)on1 (stereo not drawn) [Example 6, 3-Ethyl-5-[2-(2-hydroxy-3-tert.-butylaminopropoxy)-styryl]-isoxazole]	0.93 mg/kg	of the same toxicity, or somewhat more toxic	0.018 mg/kg	6.1	β-sympatholytic activity (in words) [2]: high activity
CC(C)NCC(O)COc1cccc2ccccc12 (stereo not drawn) [Propranolol, reference compound]	–	–	0.11 mg/kg	–	animals died ([1]; i.v.): 2 out of 6; anti-hypertensive action, oral (in words) (systolic blood pressure; oral, spontaneously hypertonic rats, propranolol up to a dose of 100 mg/kg): ineffective; anti-hypertensive action of conventional β-sympatholytic agents (in words) [3]: only exhibit an anti-hypertensive action on lengthy administration
Cc1cc(C=Cc2ccccc2OCC(O)CNC(C)(C)C)on1 (stereo not drawn) [Example 3, 3-Methyl-5-[2-(2-hydroxy-3-tert.-butylaminopropoxy)-styryl]-isoxazole]	0.4 mg/kg	somewhat higher than that of propranolol	0.0055 mg/kg	–	animals died ([1]; i.v.): 1 out of 6; Blood pressure-lowering action ED 20% ([1]; i.v., rats under urethane narcosis, dose lowering mean carotid artery pressure by 20%): 0.40 mg/kg; ED20 (systolic blood pressure; Rattus norvegicus, po, 2 h, read-out: Anti-hypertensive action ED 20%): 14.5 mg/kg
Cc1cc(C=Cc2ccccc2OCC(O)CNC(C)C)on1 (stereo not drawn) [Example 1, 3-Methyl-5-[2-(2-hydroxy-3-isopropyl-aminopropoxy)-styryl]-isoxazole]	0.65 mg/kg	of the same toxicity, or somewhat more toxic	0.0077 mg/kg	–	β-sympatholytic activity (in words) [2]: high activity

From US4251539A, “Amino derivatives of 3-alkyl-5-(2-hydroxystyryl)-isoxazoles” (BASF Aktiengesellschaft, priority 1978, dated 1981)
